According to patent US20120225093A1, “Abrogating HIV-1 Infection via Drug-Induced Reactivation of Apoptosis” (UNIVERSITY OF MEDICINE AND DENTISTRY OF NEW JERSEY, priority 2010, published 2012):

Assays:
eIF5A = eIF5A maturation in 293T cells, immunoblot with NIH-353 antibody; assay type: cell-based, human; settings: for concentration range reducing appearance of mature eIF5A: 293T transfected with FLAG-eIF5A, 24 hr
Description: Rabbit NIH-353 antibody was raised against mature human eIF5A (Cracchiolo et al. Gynecol Oncol 2004, 94:217-222). Antibody against DOHH was generated by M. H. Park. Anti-eIF5A-1 monoclonal antibody (BD) was purchased from BD Biosciences. The anti-FLAG monoclonal antibody M2 and anti-actin antibody were purchased from Sigma.
(§1) Immunoprecipitation and immunoblotting experiments were carried out as described previously in Hoque et al. Mol Cell Biol 2003, 23:1688-1702.
To examine the effect of the drugs on the synthesis of modified eIF5A, 293T cells transfected with a FLAG-tagged eIF5A expression vector were simultaneously treated with CPX or DEF. FLAG-eIF5A was monitored using NIH-353 and anti-FLAG antibodies (FIG. 2A,B). The NIH-353 antibody reacts preferentially with post-translationally modified eIF5A. CPX reduced the appearance of mature eIF5A over the 3-30 μM concentration range, while DEF was effective at 200-400 μM. […] In addition to the CPX homolog Agent P2, deferoxamine (DFOX; Desferal™) was used as a control compound.

[1] = tested on: bioavailable intracellular iron; assay: IRE-controlled luciferase reporter in 293T cells; assay type: cell-based, human; settings: 12 hr
Description: 293T cells (10^5 cells/well of 12-well microplates) were seeded and transfected 20 hr later with a firefly luciferase (Luc)-expressing reporter plasmid and corresponding Renilla luciferase (Ren)-expressing reference plasmid using TransFectin™ (Bio-Rad, Hercules, Calif.). The bioavailable intracellular iron concentration was monitored using plasmids obtained from B. Galy and M. W. Hentze (EMBL, Heidelberg). Plasmid pcFIF-Luc contains the mouse ferritin H 5′-UTR with an iron response element (IRE) controlling Luc; pcFIRo-Ren is a similar construct expressing a mutated non-functional IRE fused to Ren. The activity of the HIV-1 promoter was monitored using the pNL4-3-Luc E molecular clone (Chen et al. (1994) J Virol 68: 654-660.), based on the recombinant infectious proviral clone that contains DNA from HIV isolates NY5 (5′ half) and IIIB (3′ half). This plasmid, obtained from D. Baltimore (Caltech, Pasadena), contains the Luc gene in place of 102 nucleotides from nef and 6 nucleotides from env. pCMV-Ren (Promega, Madison, Wis.) was used as reference for pNL4-3-Luc E. Compounds were added at the time of transfection. Cells were harvested 12 hr later, washed with phosphate-buffered saline, and lysed for the dual luciferase assay (Dual Luciferase™ Reporter Assay System; Promega, Madison, Wis.). Luc data were normalized to the Ren internal controls (Hogue et al. (2009) Retrovirology 6: 90.).
Both CPX and DEF are hydroxypyridinones with vicinally positioned oxygen atoms that mediate bidentate interaction with metal ions, in particular Fe^3+ (FIG. 11A). To evaluate the effect of drugs on the intracellular iron pool and on HIV-1 gene expression, transient expression assays in human 293T cells were exploited. Bioavailable intracellular iron was measured using a construct in which an iron-responsive element (IRE) controls luciferase expression, and HIV-specific transcription was assayed in parallel using an HIV-1 molecular clone that expresses luciferase reporter under the direction of the retroviral promoter. CPX and DEF were compared with the medicinal chelator deferoxamine (DFOX) and with the CPX fragment Agent P2, which consists of the metal-binding 1,2-HOPO domain of CPX but lacks the cyclohexyl moiety (FIG. 11A).

eIF5A:DOHH complex = molecular target: T1, eIF5A:DOHH complex (Homo sapiens, UniProt Q9BU89); assay: Co-immunoprecipitation of eIF5A with DOHH from 293T cell extracts; assay type: cell-based; settings: for interaction between endogenous eIF5A and tagged DOHH: 293T transfected with FLAG-DOHH; for association of endogenous DOHH with FLAG-eIF5A: CPX 30 μM, P2 30 μM, DEF 250 μM, DFOX 10 μM, GC7 10 μM, 24 hr
T1 construct: Endogenous DOHH co-immunoprecipitated with FLAG-eIF5A; expressed in transfected cells; host or cells: 293T cells (DOHH endogenous, FLAG-eIF5A transfected)
T1 sequence (Q9BU89 1-302): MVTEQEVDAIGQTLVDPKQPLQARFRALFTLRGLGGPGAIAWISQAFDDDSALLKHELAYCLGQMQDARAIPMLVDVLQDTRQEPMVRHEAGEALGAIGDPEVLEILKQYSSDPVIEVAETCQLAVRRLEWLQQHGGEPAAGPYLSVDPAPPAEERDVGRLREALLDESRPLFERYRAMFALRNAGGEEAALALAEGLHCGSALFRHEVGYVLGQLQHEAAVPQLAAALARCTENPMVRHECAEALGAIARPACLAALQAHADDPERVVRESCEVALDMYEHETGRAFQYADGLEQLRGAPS
Description: as §1
eIF5A forms tight complexes with its modifying enzymes. Unmodified eIF5A (lysine-50) immunoprecipitates with DHS and deoxyhypusyl-eIF5A interacts with DOHH in vitro. It was discovered that the deoxyhypusyl-eIF5A:DOHH complex formed in vivo can be detected by immunoprecipitation from cell extracts. Taking advantage of this finding, the effects of the drugs on the enzyme-substrate interaction were tested. FLAG-eIF5A was expressed in 293T cells and complexes that immunoprecipitated with anti-FLAG antibody were immunoblotted and probed with antibodies against DOHH. […] As a further control, the DHS inhibitor GC7 was included in this assay. […] As expected, none of the compounds affected the immunoprecipitation of FLAG-eIF5A (FIG. 2D, middle panel) or the expression of endogenous eIF5A (FIG. 2D, bottom panel). Reciprocally, the interaction between endogenous eIF5A and tagged DOHH was inhibited by CPX and DEF (FIG. 2E, right). Similarly, the interaction of endogenous eIF5A with tagged DHS was inhibited by GC7 (FIG. 2E, left) but resistant to CPX and DEF. It is concluded that CPX and DEF, but not P2 or DFOX, target DOHH and inhibit its interaction with its substrate, deoxyhypusylelF5A.

Structure (SMILES)	concentration range reducing appearance of mature eIF5A (eIF5A) [µM]	reduction of intracellular iron (IRE-dependent luciferase) [1] [%]	interaction between endogenous eIF5A and tagged DOHH (eIF5A:DOHH complex)	association of endogenous DOHH with FLAG-eIF5A (eIF5A:DOHH complex)	effect on appearance of mature FLAG-eIF5A (eIF5A; 293T, control compounds)	reduction of intracellular iron (IRE-dependent luciferase) ([1]; DFOX 15 μM)
Cc1cc(C2CCCCC2)n(O)c(=O)c1 [CPX, 6-cyclohexyl-1-hydroxy-4-methylpyridin-2[1H]-one]	3 to 30	80	inhibited	largely prevented	–	–
Cc1c(O)c(=O)ccn1C [DEF, 3-hydroxy-1,2-dimethylpyridin-4(1H)-one]	200 to 400	~60	inhibited	largely prevented	–	–
Cc1ccn(O)c(=O)c1 [Agent P2, 1-hydroxy-4-methylpyridin-2[1H]-one]	–	–	–	neither P2 or DFOX prevented the formation of the eIF5A:DOHH complex	little or no effect	no effect on either IRE-dependent or HIV-encoded luciferase expression
